Measurements reported in patent US6197818A, “Drug for treating diabetic nephrosis” (Nanjing General Hospital of Nanjing Command, PLA, priority 1999, dated 2001).

Tests used:
[1] = test system: Diabetic animal model of rat; assay: Suppression of renal hypertrophy by sodium rheinate in experimental diabetic rats (streptozotocin); assay type: in vivo, SD rats; conditions: for blood glucose level / Kidney Index (kidney weight/body weight ratio) / Kidney Weight: treated 1 mg/Kg/day Rhein-Na; for Kidney Index (kidney weight/body weight ratio) / Kidney Weight: 12th week
Protocol: Drug: aqueous solution of sodium rheinate at concentration of 0.1 g/L for oral
Diabetic animal model of rat: Adult female SD rats (Experimental Animal Center, Jinling Hospital, Nanjing) with body weights of 200 to 250 grams were used. Rats were made diabetic by an intra-abdominal injection of Streptozotocin (Sigma Chemical Co.; in 0.1 mmol/L citrate buffer, pH 4.5) in a dose of 25 mg/Kg/day for 5 days. Only rats with blood glucose level within the range of 13 to 25 mmol/L were recognized as the establishment of the diabetic mode.
(§1) The observation was focused on the changes of kidney weight and volume in diabetic rats treated by rhein.
The experiment was designed as the following:
Normal rats Diabetic rats
Control treated Control treated
Dosage of Rhein-Na, 0 1 0 1
Distilled water, ml/Kg/day 5 5 5 5

[2] = acute toxicity, half lethal dose (LD50); assay type: in vivo; conditions: rat, in vivo; SD rats
SD rats = assay: acute toxicity, half lethal dose (LD50); assay type: in vivo; conditions: natural product
[3] = tolerability of oral rhein in volunteers; assay type: in vivo, human volunteers
Protocol: Of the thirty-six volunteers given rhein at dose of 200 mg/day (100 mg, b.i.d) for 3 days, only 5 persons experience gastro-intestinal disorders. Diarrhea occurred twice or thrice a day in three of these persons, and four times in only one person.

[4] = pharmacokinetic study of oral rhein, blood level; assay type: in vivo, human (volunteers)
Protocol: The blood level of rhein still kept at 200 to 500 ng/ml at 24th hour in volunteers.

[5] = solubility and stability of rhein; assay type: physicochemical
Text: It remains steady in room temperature for more than one year. The general formula of rhein or the salt thereof is shown as the following: [drawing 2]

[6] = test system: Diabetic animal model of rat; assay: Suppression of renal hypertrophy by rhein in experimental diabetic rats (streptozotocin); assay type: in vivo, SD rats; conditions: for blood glucose level / Kidney Index (kidney weight/body weight ratio) / Kidney Volume / Kidney Weight: rhein-treated 2 mg/Kg/day; for Kidney Index (kidney weight/body weight ratio) / Kidney Volume / Kidney Weight: 12th week
Protocol: The concentration of rhein is 0.2 g/L.
Rats were made diabetic by an intra-abdominal injection of Streptozotocin (Sigma Chemical Co.; in 0.1 mmol/L citrate buffer, pH 4.5) in a dose of 25 mg/Kg/day for 5 days.
as §1

diabetic nephropathy = assay: Clinical trial of rhein on diabetic nephropathy; assay type: in vivo, human diabetic patients
Protocol: Twenty-five diabetic patients diagnosed according to the standard of WHO where enrolled in this study. The fast blood glucose levels were above 250 mg/100 ml in these patients. Diabetic nephropathy was confirmed morphologically by renal biopsy, or with measurement of urinary protein or albumin excretion in each patient.
A yellow powder supplied in capsula containing 25 mg rhein. The dosage of 100 mg per day (50 mg twice a day) rhein was given orally as therapy. All patients were followed at regular intervals for measurement of serum creatinine values and urinary protein or albumin excretion at least for 3 months.

[7] = test system: kidney damage caused by diabetes; conditions: cited from earlier work
[8] = diabetic rats, 1 week after diabetic
[9] = diabetic rats, 4 weeks after diabetic
[10] = diabetic rats, pre-diabetic (baseline)
[11] = experimental diabetic rats, oral
[12] = of thirty-six volunteers, 200 mg/day (100 mg, b.i.d) for 3 days
[13] = Treatment after 3 months, 100 mg per day
[14] = of twenty-five, 100 mg per day, three months
[15] = patients treated with rhein, 100 mg per day

O=C(O)c1cc(O)c2c(c1)C(=O)c1cccc(O)c1C2=O [sodium rheinate]
blood glucose level [1, 8]: 21.82 mmol/L
blood glucose level [1, 9]: 19.97 mmol/L
Kidney Index (kidney weight/body weight ratio) ([1]; diabetic rats): 5.68 ×10^-3
Kidney Weight ([1]; diabetic rats): 0.71 grams
blood glucose level [1, 10]: 6.17 mmol/L
hyperglycemia (in words) [1, 11]: controlled or reduced effectively
blood glucose level ([1]; normal rats, 1 week): 6.52 mmol/L
blood glucose level ([1]; normal rats, 4 weeks): 6.48 mmol/L
Kidney Index (kidney weight/body weight ratio) ([1]; normal rats): 4.34 ×10^-3
Kidney Weight ([1]; normal rats): 0.59 grams
blood glucose level ([1]; normal rats, pre-diabetic): 6.06 mmol/L

O=C(O)c1cc(O)c2c(c1)C(=O)c1cccc(O)c1C2=O [rhein]
LD50 [2]: 3200 mg/kg
toxicity (in words) (SD rats): low toxicity and safe for therapy
persons experiencing gastro-intestinal disorders [3, 12]: 5 persons
persons with diarrhea four times a day [3, 12]: one
persons with diarrhea twice or thrice a day [3, 12]: three
gastro-intestinal reactions (in words) ([3]; oral route, volunteers): not marked gastro-intestinal reactions
concentration at 24 h ([4]; human, blood, po, 24th hour, volunteers, single dose of 200 mg): 200 to 500 ng/mL
time to peak blood level ([4]; one single dose of 200 mg, health man): one and half hours to three
absorption from gastro-intestinal trace ([4]; oral): easily absorbed
maintenance of blood concentration ([4]; oral): maintains for a longer period
solubility in organic solvent ([5]; organic solvent): soluble in organic solvent
stability (remains steady) ([5]; room temperature): more than one
solubility in water ([5]; water): soluble slightly in water
kidney index (in words) ([6]; diabetic rats): decrease the kidney index (kidney weight/body weight ratio) obviously
renal hypertrophy (in words) ([6]; diabetic rats): able to control or suppress renal hypertrophy
blood glucose level [6, 8]: 20.32 mmol/L
blood glucose level [6, 9]: 19.77 mmol/L
blood glucose level ([6]; diabetic rats, 8 weeks after diabetic): 21.00 mmol/L
Kidney Index (kidney weight/body weight ratio) ([6]; diabetic rats): 4.76 ×10^-3
Kidney Volume ([6]; diabetic rats): 0.834 mL
Kidney Weight ([6]; diabetic rats): 0.93 grams
blood glucose level ([6]; diabetic rats, 12 weeks after diabetic): 19.32 mmol/L
blood glucose level [6, 10]: 6.23 mmol/L
hyperglycemia (in words) [6, 11]: controlled or reduced effectively
blood glucose level ([6]; normal rats, 1 week): 5.92 mmol/L
blood glucose level ([6]; normal rats, 4 weeks): 5.66 mmol/L
blood glucose level ([6]; normal rats, 8 weeks): 6.07 mmol/L
Kidney Index (kidney weight/body weight ratio) ([6]; normal rats): 4.04 ×10^-3
Kidney Volume ([6]; normal rats): 0.804 mL
Kidney Weight ([6]; normal rats): 0.72 grams
blood glucose level ([6]; normal rats, 12 weeks): 6.22 mmol/L
blood glucose level ([6]; normal rats, pre-diabetic): 6.12 mmol/L
gastro-intestinal reactions as vomiting, diarrhea et al. (diabetic nephropathy; 100 mg per day): None
share of patients with obvious decrement of urinary protein excretion (diabetic nephropathy; 18 of twenty-five, 100 mg per day, three months): 72%
Change of urinary protein excretion: Decrease of 25% (diabetic nephropathy; [13]): 5 No.
Change of urinary protein excretion: Decrease of 50% (diabetic nephropathy; [13]): 9 No.
Change of urinary protein excretion: Decrease of 75% (diabetic nephropathy; [13]): 4 No.
Change of urinary protein excretion: No change (diabetic nephropathy; [13]): 7 No.
tolerability (in words) (diabetic nephropathy; all patients, 100 mg per day): tolerated
urinary albumin excretion (in words) (diabetic nephropathy; diabetic nephropathy patients): ameliorate the urinary albumin excretion significantly
urinary protein excretion (in words) (diabetic nephropathy; diabetic patients): could decrease the urinary protein excretion
patients with no change or increase of urinary protein excretion (diabetic nephropathy; [14]): seven
patients with obvious decrement of urinary protein excretion (diabetic nephropathy; [14]): 18 patients
Blood routine test (diabetic nephropathy; [15]): normal
liver function and renal function (diabetic nephropathy; [15]): no liver function abnormally and deterioration of renal function

insulin: the main medicament for its treatment is insulin at present
effect on urinary glucose [7]: can decrease the urinary glucose
effect on kidney damage caused by diabetes ([7]; such as renal hypertrophy): no therapeutic effect
